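96-well plates; 48 h exposure; 5 concentrations. Endpoints by linear interpolation between flanking doses. Not reached: highest tested concentration assigned. GI50 is the concentration that inhibits growth by half.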 The source made the active and inactive calls. Rule as the data show it: active = GI50 up to about 1.1 µM and inactive = higher.
What was measured:
Assay in all cases: growth of human tumour cells (NCI), 48 h
[1] = test system: NCI-H23
[2] = test system: SK-MEL-28
[3] = test system: OVCAR-5
[4] = test system: 786-0
[5] = test system: K562
[6] = test system: NCI-H460
[7] = test system: COLO 205
[8] = test system: SK-OV-3
[9] = test system: IGROV-1
[10] = test system: TK-10
[11] = test system: HOP-62
[12] = test system: ACHN
[13] = test system: OVCAR-8
[14] = test system: HT-29
[15] = test system: U-251
[16] = test system: SK-MEL-5
[17] = test system: SNB-75
[18] = test system: SK-MEL-2
[19] = test system: A549
[20] = test system: SF-539
[21] = test system: RXF 393
[22] = test system: Malme-3M
[23] = test system: SW-620
[24] = test system: MDA-MB-435
[25] = test system: PC-3
[26] = test system: M14
[27] = test system: CAKI-1
[28] = test system: T47D
[29] = test system: UO-31
[30] = test system: SR
[31] = test system: MCF7
[32] = test system: MOLT-4
[33] = test system: KM12
[34] = test system: UACC-257
[35] = test system: Hs-578T
[36] = test system: UACC-62
[37] = test system: NCI/ADR-RES
[38] = test system: CCRF-CEM
[39] = test system: OVCAR-4
[40] = test system: DU-145
[41] = test system: HOP-92
[42] = test system: HCT-15
[43] = test system: EKVX
[44] = test system: A498
[45] = test system: HCC 2998
[46] = test system: RPMI-8226
[47] = test system: BT-549
[48] = test system: OVCAR-3
[49] = test system: SN12C
[50] = test system: NCI-H522
[51] = test system: MDA-N
[52] = test system: SNB-19
[53] = test system: SF-295
[54] = test system: NCI-H226
[55] = test system: HCT-116
[56] = test system: HL-60
[57] = test system: MDA-MB-231
[58] = test system: SF-268
[59] = test system: LOX IMVI

COc1cc2c(cc1O)[C@]1(Cc3ccc4c(c3C1=O)OCO4)N(C)CC2 was tested, and the GI50 [1] was > 100 µM (inactive), the GI50 [2] was > 100 µM (inactive) and the GI50 [3] was > 100 µM (inactive). For the same compound, the GI50 [4] was > 100 µM (inactive), the GI50 [5] was > 100 µM (inactive) and the GI50 [6] was > 100 µM (inactive). The GI50 [7] was > 100 µM (inactive), the GI50 [8] was > 100 µM (inactive) and the GI50 [9] was > 100 µM (inactive). The GI50 [10] was > 100 µM (inactive), the GI50 [11] was > 100 µM (inactive) and the GI50 [12] was > 100 µM (inactive). The GI50 [13] was > 100 µM (inactive), the GI50 [14] was > 100 µM (inactive) and the GI50 [15] was > 100 µM (inactive). For the same compound, the GI50 [16] was > 100 µM (inactive), the GI50 [17] was 73.5 µM (inactive) and the GI50 [18] was > 100 µM (inactive). For the same compound, the GI50 [19] was > 100 µM (inactive), the GI50 [20] was > 100 µM (inactive) and the GI50 [21] was > 100 µM (inactive). For the same compound, the GI50 [22] was > 100 µM (inactive), the GI50 [23] was > 100 µM (inactive) and the GI50 [24] was > 100 µM (inactive). For the same compound, the GI50 [25] was > 100 µM (inactive), the GI50 [26] was > 100 µM (inactive) and the GI50 [27] was > 100 µM (inactive). The GI50 [28] was > 100 µM (inactive), the GI50 [29] was > 100 µM (inactive) and the GI50 [30] was > 100 µM (inactive). The GI50 [31] was > 100 µM (inactive), the GI50 [32] was > 100 µM (inactive) and the GI50 [33] was > 100 µM (inactive). For the same compound, the GI50 [34] was > 100 µM (inactive), the GI50 [35] was > 100 µM (inactive) and the GI50 [36] was > 100 µM (inactive). The GI50 [37] was > 100 µM (inactive), the GI50 [38] was > 100 µM (inactive) and the GI50 [39] was > 100 µM (inactive). The GI50 [40] was > 100 µM (inactive), the GI50 [41] was > 100 µM (inactive) and the GI50 [42] was > 100 µM. The GI50 [43] was > 100 µM (inactive), the GI50 [44] was > 100 µM (inactive) and the GI50 [45] was > 100 µM (inactive). The GI50 [46] was > 100 µM (inactive), the GI50 [47] was > 100 µM (inactive) and the GI50 [48] was > 100 µM (inactive). The GI50 [49] was > 100 µM (inactive), the GI50 [50] was > 100 µM (inactive) and the GI50 [51] was > 100 µM (inactive). The GI50 [52] was > 100 µM (inactive), the GI50 [53] was > 100 µM (inactive) and the GI50 [54] was > 100 µM (inactive). For the same compound, the GI50 [55] was > 100 µM (inactive), the GI50 [56] was > 100 µM (inactive) and the GI50 [57] was > 100 µM (inactive). The GI50 [58] was > 100 µM (inactive).

S=C1SCN(C2CCCCCCCCCCC2)CN1C1CCCCCCCCCCC1 was tested, and the GI50 [1] was > 100 µM (inactive), the GI50 [2] was > 100 µM (inactive) and the GI50 [3] was > 100 µM (inactive). The GI50 [4] was > 100 µM (inactive), the GI50 [5] was > 100 µM (inactive) and the GI50 [6] was > 100 µM (inactive). The GI50 [7] was > 100 µM (inactive), the GI50 [8] was > 100 µM (inactive) and the GI50 [9] was > 100 µM (inactive). The GI50 [10] was > 100 µM (inactive), the GI50 [11] was 67.6 µM (inactive) and the GI50 [12] was > 100 µM (inactive). The GI50 [13] was > 100 µM (inactive), the GI50 [14] was > 100 µM (inactive) and the GI50 [15] was > 100 µM (inactive). For the same compound, the GI50 [16] was > 100 µM (inactive), the GI50 [17] was > 100 µM (inactive) and the GI50 [18] was > 100 µM (inactive). The GI50 [19] was > 100 µM (inactive), the GI50 [20] was > 100 µM (inactive) and the GI50 [21] was > 100 µM (inactive). The GI50 [22] was > 100 µM (inactive), the GI50 [23] was > 100 µM (inactive) and the GI50 [24] was 42.2 µM (inactive). For the same compound, the GI50 [25] was > 100 µM (inactive), the GI50 [26] was > 100 µM (inactive) and the GI50 [27] was > 100 µM (inactive). For the same compound, the GI50 [28] was > 100 µM (inactive), the GI50 [29] was > 100 µM (inactive) and the GI50 [30] was 71.6 µM (inactive). For the same compound, the GI50 [31] was 66.8 µM (inactive), the GI50 [32] was 46.1 µM (inactive) and the GI50 [33] was > 100 µM (inactive). For the same compound, the GI50 [34] was > 100 µM (inactive), the GI50 [35] was > 100 µM (inactive) and the GI50 [36] was 97.9 µM (inactive). The GI50 [37] was > 100 µM (inactive), the GI50 [38] was 34.4 µM (inactive) and the GI50 [39] was 86.7 µM (inactive). For the same compound, the GI50 [40] was > 100 µM (inactive), the GI50 [59] was > 100 µM (inactive) and the GI50 [41] was > 100 µM (inactive). For the same compound, the GI50 [42] was > 100 µM, the GI50 [43] was > 100 µM (inactive) and the GI50 [44] was > 100 µM (inactive). The GI50 [46] was 47.5 µM (inactive), the GI50 [47] was > 100 µM (inactive) and the GI50 [48] was 34.7 µM (inactive). The GI50 [49] was > 100 µM (inactive), the GI50 [50] was 67.5 µM (inactive) and the GI50 [51] was > 100 µM (inactive). The GI50 [52] was > 100 µM (inactive), the GI50 [53] was > 100 µM (inactive) and the GI50 [54] was > 100 µM (inactive). The GI50 [55] was > 100 µM (inactive), the GI50 [56] was 38.2 µM (inactive) and the GI50 [57] was > 100 µM (inactive). For the same compound, the GI50 [58] was > 100 µM (inactive).

From ChEMBL document CHEMBL1201862, “PubChem BioAssay data set” (2004)
